Literature values as cited in patent EP1019029B1, “MONOLITHIC SYSTEM CONTAINING ONE OR MORE DRUGS, CONSISTING OF THREE LAYERS WITH DIFFERENT RELEASE MECHANISMS” (CHIESI FARMACEUTICI S.p.A., priority 1997, dated 1999).
Like-named read-outs stand apart in the source and are kept apart here.

Row | Structure (SMILES) | water solubilities (at 37°C) [mg/mL] | water solubilities (at 20°C) [mg/mL]
1 | C[C@@](Cc1ccc(O)c(O)c1)(NN)C(=O)O [Carbidopa] | 2.5 | 
2 | COC(=O)[C@@H](N)Cc1ccc(O)c(O)c1 [Levodopa methyl ester] |  | 500
